From the NIST ThermoML archive (doi:10.1016/j.jct.2017.07.013)
± gives the expanded uncertainty stated by the source.

Test: refractive index (Na D-line) (dimensionless); xn = mol fraction of the nth substance listed
Conditions: 101.3 kPa, Liquid, Standard Abbe refractometry

CCCC[n+]1ccn(C)c1.O=S(=O)([N-]S(=O)(=O)C(F)(F)F)C(F)(F)F + COC(=O)OC
refractive index
Conditions | 303.15 K | 308.15 K | 313.15 K | 318.15 K | 323.15 K
x1 = 0.0512 | 1.3757 ± 0.0011 | 1.3741 ± 0.0011 | 1.3744 ± 0.0011 | 1.3724 ± 0.0011 | 1.3719 ± 0.0011
x1 = 0.101 | 1.3844 ± 0.0011 | 1.383 ± 0.0011 | 1.3836 ± 0.0011 | 1.3819 ± 0.0011 | 1.3817 ± 0.0011
x1 = 0.1495 | 1.3913 ± 0.0011 | 1.39 ± 0.0011 | 1.3907 ± 0.0011 | 1.3892 ± 0.0011 | 1.3893 ± 0.0011
x1 = 0.1945 | 1.3965 ± 0.0011 | 1.3953 ± 0.0011 | 1.3959 ± 0.0011 | 1.3946 ± 0.0011 | 1.3948 ± 0.0011
x1 = 0.2994 | 1.4053 ± 0.0011 | 1.4042 ± 0.0011 | 1.4042 ± 0.0011 | 1.403 ± 0.0011 | 1.4033 ± 0.0011
x1 = 0.3999 | 1.4106 ± 0.0011 | 1.4095 ± 0.0011 | 1.4089 ± 0.0011 | 1.4077 ± 0.0011 | 1.4078 ± 0.0011
x1 = 0.4976 | 1.4141 ± 0.0011 | 1.4131 ± 0.0011 | 1.4119 ± 0.0011 | 1.4107 ± 0.0011 | 1.4106 ± 0.0011
x1 = 0.5842 | 1.4165 ± 0.0011 | 1.4155 ± 0.0011 | 1.414 ± 0.0011 | 1.4128 ± 0.0011 | 1.4126 ± 0.0011
x1 = 0.6886 | 1.4191 ± 0.0011 | 1.4181 ± 0.0011 | 1.4166 ± 0.0011 | 1.4154 ± 0.0011 | 1.4149 ± 0.0011
x1 = 0.7475 | 1.4204 ± 0.0011 | 1.4195 ± 0.0011 | 1.418 ± 0.0011 | 1.4168 ± 0.0011 | 1.4162 ± 0.0011
x1 = 0.8014 | 1.4216 ± 0.0011 | 1.4207 ± 0.0011 | 1.4193 ± 0.0011 | 1.4181 ± 0.0011 | 1.4172 ± 0.0011
x1 = 0.889 | 1.4233 ± 0.0011 | 1.4223 ± 0.0011 | 1.4208 ± 0.0011 | 1.4196 ± 0.0011 | 1.4185 ± 0.0011
x1 = 0.9526 | 1.4242 ± 0.0011 | 1.423 ± 0.0011 | 1.4213 ± 0.0011 | 1.4199 ± 0.0011 | 1.4183 ± 0.0011
x1 = 1 | 1.4245 ± 0.0011 | 1.4231 ± 0.0011 | 1.421 ± 0.0011 | 1.4195 ± 0.0011 | 1.4173 ± 0.0011
